Data set [1] has as its system HS746T cancer cells. In words: Anticancer activity, cell viability by CCK-8, HS746T. In kind it is cell-based. Particulars: 72 hours. The procedure:
(§1) Compounds 1 to 119 synthesized in Example 1 according to the present disclosure were assayed for inhibitory activity against MLK3/LRRK2 enzymes and anticancer activity against HepG2/H[…] cancer cells, and the results are summarized in Table 1, below. Assay for anticancer activity was conducted as follows. HepG2 and H[…] cancer cells were purchased from the Korean Cell Line Bank and cultured according to the instruction provided thereby. One hundred μL of a culture of the cells were seeded at a density of 4,000 cells/well into 96-well plates. After 24 hours, the cells were treated with the compounds for 72 hours. Then, cell viability was assayed using CCK-8 and expressed as % of the control.

In data set [2] the target is T1, human recombinant LRRK2 protein (Homo sapiens, UniProt Q5S007).
T1 construct: purchased Eurofins
In words: LRRK2 kinase activity assay (Eurofins, gamma-33P-ATP, filtermat scintillation counting). The settings on record: human recombinant LRRK2, 40 minutes at room temperature. The class given is biochemical. The procedure:
(§2) Compounds 1 to 119 synthesized in Example 1 according to the present disclosure were assayed for inhibitory activity against MLK3/LRRK2 enzymes and anticancer activity against HepG2/HS746T cancer cells, and the results are summarized in Table 1, below.
(§3) Inhibitory activity against MLK3 and LRRK2 enzymes was evaluated in Eurofins. In brief, human recombinant MLK3 protein was mixed with the compounds in a reaction buffer (8 mM MOPS (pH 7.0), 0.2 mM EDTA, 0.33 mg/mL myelin basic protein, 5 mM DTT) to which a mixture of 10 mM magnesium acetate and gamma-33P-ATP was then added before incubation at room temperature for 120 minutes. Afterward, the reaction was terminated with 0.5% phosphoric acid. Ten μL of the total mixture was spotted onto a P30 filtermat which was then washed four times for 4 minutes with 0.425% phosphoric acid and once in methanol prior to scintillation counting. Values for the activity of MLK3 were expressed as % of the control. For the activity of LRRK2, human recombinant LRRK2 protein was mixed with the compounds in a reaction buffer (50 mM HEPES (pH 8.0), 0.2 mM EDTA, 0.01% Brij-35, 1% (w/v) BSA, 5 mM DTT, 250 uM substrate peptide RLGRDKYKTLRQIRQ) and then reacted with a mixture of 10 mM magnesium acetate and gamma-33P-ATP at room temperature for 40 minutes. Afterward, the reaction was terminated with 0.5% phosphoric acid. Ten μL of the total mixture was spotted onto a P30 filtermat which was then washed four times for 4 minutes with 0.425% phosphoric acid and once in methanol prior to scintillation counting. Values for the activity of LRRK2 were expressed as % of the control.

Data set [3] deals with T2, human recombinant MLK3 protein (Homo sapiens, UniProt Q16584).
T2 construct: purchased Eurofins
In words: MLK3 kinase activity assay (Eurofins, gamma-33P-ATP, filtermat scintillation counting). Particulars: human recombinant MLK3, 120 minutes at room temperature. The class given is biochemical. The procedure:
as §2, §3

Data set [4] deals with HepG2 cancer cells. In words: Anticancer activity, cell viability by CCK-8, HepG2. The settings on record: HepG2, 10 μM, 72 hours. The class given is cell-based. The procedure:
as §1

T1 sequence (Q5S007 whole entry): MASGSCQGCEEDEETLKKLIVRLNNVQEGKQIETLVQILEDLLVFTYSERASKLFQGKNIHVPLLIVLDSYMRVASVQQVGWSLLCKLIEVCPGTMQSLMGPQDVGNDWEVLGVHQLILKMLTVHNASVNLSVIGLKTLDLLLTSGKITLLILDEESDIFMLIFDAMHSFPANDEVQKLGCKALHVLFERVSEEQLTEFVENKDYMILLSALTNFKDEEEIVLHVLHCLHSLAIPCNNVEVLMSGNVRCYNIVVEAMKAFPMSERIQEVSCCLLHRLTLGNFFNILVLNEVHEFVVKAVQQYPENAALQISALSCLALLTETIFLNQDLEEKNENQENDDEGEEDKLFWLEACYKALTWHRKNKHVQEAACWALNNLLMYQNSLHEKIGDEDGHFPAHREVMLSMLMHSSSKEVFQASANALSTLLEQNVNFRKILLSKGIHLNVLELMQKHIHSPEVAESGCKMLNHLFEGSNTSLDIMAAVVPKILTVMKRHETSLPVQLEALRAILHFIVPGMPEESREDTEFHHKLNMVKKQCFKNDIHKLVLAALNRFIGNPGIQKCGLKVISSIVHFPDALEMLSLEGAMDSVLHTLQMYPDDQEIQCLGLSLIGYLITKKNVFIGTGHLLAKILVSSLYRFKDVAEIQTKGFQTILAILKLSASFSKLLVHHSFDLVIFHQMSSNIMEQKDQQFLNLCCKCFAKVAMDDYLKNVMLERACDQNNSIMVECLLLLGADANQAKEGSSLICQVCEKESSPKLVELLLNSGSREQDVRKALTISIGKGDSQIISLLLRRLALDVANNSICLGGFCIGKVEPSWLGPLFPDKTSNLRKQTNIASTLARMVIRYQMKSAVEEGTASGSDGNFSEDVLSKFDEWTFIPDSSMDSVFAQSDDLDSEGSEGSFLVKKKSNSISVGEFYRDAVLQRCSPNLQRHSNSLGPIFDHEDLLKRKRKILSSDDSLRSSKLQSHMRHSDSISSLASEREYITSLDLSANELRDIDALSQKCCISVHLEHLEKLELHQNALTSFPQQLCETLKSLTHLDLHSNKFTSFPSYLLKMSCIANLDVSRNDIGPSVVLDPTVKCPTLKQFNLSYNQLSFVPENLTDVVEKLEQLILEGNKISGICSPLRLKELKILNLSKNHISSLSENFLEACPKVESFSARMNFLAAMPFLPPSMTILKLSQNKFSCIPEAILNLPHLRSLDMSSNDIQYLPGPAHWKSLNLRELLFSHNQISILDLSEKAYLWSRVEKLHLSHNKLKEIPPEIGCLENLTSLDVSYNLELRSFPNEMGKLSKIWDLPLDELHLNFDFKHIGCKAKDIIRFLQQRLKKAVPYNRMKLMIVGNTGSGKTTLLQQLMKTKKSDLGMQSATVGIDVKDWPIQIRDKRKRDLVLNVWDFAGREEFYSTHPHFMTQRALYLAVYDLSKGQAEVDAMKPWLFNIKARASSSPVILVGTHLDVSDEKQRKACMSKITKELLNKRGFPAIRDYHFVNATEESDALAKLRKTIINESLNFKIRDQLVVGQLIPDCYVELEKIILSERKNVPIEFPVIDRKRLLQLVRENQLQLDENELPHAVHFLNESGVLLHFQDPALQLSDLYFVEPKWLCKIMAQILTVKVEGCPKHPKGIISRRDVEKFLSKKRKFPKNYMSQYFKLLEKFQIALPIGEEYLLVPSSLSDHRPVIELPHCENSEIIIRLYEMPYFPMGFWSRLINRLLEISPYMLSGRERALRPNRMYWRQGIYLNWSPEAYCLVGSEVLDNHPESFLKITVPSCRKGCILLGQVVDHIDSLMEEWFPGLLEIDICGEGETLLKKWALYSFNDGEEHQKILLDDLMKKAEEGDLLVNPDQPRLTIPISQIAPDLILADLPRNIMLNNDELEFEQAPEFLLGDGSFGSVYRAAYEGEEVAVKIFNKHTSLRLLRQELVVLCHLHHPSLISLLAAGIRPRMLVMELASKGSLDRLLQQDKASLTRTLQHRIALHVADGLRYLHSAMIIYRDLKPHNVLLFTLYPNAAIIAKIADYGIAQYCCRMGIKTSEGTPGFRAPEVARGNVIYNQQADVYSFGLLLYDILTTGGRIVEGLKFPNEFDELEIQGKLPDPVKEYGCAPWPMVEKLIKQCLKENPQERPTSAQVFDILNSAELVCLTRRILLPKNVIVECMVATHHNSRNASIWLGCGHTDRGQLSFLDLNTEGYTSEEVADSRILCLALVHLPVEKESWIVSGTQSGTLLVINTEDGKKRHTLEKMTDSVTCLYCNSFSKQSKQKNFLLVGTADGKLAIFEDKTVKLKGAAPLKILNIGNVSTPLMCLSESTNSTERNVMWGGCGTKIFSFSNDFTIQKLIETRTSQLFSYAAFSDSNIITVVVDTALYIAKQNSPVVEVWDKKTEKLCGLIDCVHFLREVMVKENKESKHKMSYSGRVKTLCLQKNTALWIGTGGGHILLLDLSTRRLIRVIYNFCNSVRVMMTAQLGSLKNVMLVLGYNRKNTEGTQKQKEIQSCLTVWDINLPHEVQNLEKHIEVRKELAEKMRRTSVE
T2 sequence (Q16584 whole entry): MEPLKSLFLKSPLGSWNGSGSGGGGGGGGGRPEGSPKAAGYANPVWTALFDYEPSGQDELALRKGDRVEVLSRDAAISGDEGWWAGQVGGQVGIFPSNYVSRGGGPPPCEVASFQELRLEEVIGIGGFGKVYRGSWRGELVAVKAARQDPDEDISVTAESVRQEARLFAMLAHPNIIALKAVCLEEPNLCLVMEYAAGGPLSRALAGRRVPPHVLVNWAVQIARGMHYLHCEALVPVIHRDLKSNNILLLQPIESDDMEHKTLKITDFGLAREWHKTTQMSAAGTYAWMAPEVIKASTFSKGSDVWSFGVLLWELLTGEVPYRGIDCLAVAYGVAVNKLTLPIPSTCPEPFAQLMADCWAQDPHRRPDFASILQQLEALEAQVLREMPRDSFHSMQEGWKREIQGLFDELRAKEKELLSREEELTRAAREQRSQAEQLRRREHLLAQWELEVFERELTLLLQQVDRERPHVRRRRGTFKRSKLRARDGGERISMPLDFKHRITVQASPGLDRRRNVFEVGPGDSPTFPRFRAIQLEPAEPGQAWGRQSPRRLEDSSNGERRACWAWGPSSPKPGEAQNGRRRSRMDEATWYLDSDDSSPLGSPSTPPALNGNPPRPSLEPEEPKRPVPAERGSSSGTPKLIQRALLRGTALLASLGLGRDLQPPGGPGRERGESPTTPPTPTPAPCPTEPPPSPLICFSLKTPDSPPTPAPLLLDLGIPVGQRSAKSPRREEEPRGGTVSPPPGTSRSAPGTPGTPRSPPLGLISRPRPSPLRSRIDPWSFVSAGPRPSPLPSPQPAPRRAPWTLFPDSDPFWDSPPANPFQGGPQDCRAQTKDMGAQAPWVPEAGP

For `CP(C)(=O)c1ccccc1Nc1nc(Nc2ccc3ncccc3c2)ncc1Cl` [compound 18, (2-((5-Chloro-2-(quinolin-6-ylamino)pyrimidin-4-yl)amino)phenyl) dimethylphosphine oxide], the “Cell viability (% of Con. 10 μM) HS746T” value in data set [1] is 16 % of Con. Besides, the IC50 in data set [2] lay in the range of 0.001 to 0.01 µM; in data set [3], 0.01 to 0.1 µM. Further, the “Cell viability (% of Con. 10 μM) HepG2” value in data set [4] is 32 % of Con.
On the same counts, the results for `CP(C)(=O)c1ccccc1Nc1nc(Nc2ccc3c(c2)CCN(C(=O)C(F)(F)F)C3)ncc1Cl` [compound 48, 1-(6-((5-Chloro-4-((2-(dimethylphosphoryl)phenyl)amino)pyrimidin-2-yl)amino)-3,4-dihydroisoquinolin-2(1H)-yl)-2,2,2-trifluoroethan-1-one] are 9 % of Con, 0.001 to 0.01 µM, 0.001 to 0.01 µM and 37 % of Con.
As for `CP(C)(=O)c1ccccc1Nc1nc(Nc2ccc3ncsc3c2)ncc1Cl` [compound 11, (2-((2-(Benzo[d]thiazol-6-ylamino)-5-chloropyrimidin-4-yl)amino)phenyl)dimethylphosphine oxide], the “Cell viability (% of Con. 10 μM) HS746T” value in data set [1] is recorded as 27 % of Con. Further, the 50% inhibitory concentration (IC50) in data set [2] and in data set [3] was 0.001 to 0.01 µM in each case. In addition, the “Cell viability (% of Con. 10 μM) HepG2” value in data set [4] is listed as 28 % of Con.
Turning to `CC1NCCc2ccc(Nc3ncc(Cl)c(Nc4ccccc4P(C)(C)=O)n3)cc21` (centres unmarked) [compound 51, (2-((5-Chloro-2-((1-methyl-1,2,3,4-tetrahydroisoquinolin-7-yl)amino)pyrimidin-4-yl)amino)phenyl)dimethylphosphine oxide], in data set [1], the “Cell viability (% of Con. 10 μM) HS746T” value is reported as 2 % of Con. Further, the IC50 in data set [2] and in data set [3] was 0.001 to 0.01 µM in each case. In addition, the “Cell viability (% of Con. 10 μM) HepG2” value in data set [4] is listed as 24 % of Con.
Take `Cc1cc(Nc2ncc(Cl)c(Nc3ccccc3P(C)(C)=O)n2)ccn1` [compound 10, (2-((5-Chloro-2-((2-methylpyridin-4-yl)amino)pyrimidin-4-yl)amino)phenyl)dimethylphosphine oxide]: the “Cell viability (% of Con. 10 μM) HS746T” value in data set [1] is given as 120 % of Con. Moreover, the IC50 in data set [2] and in data set [3] was above 1 µM each time. Also, the “Cell viability (% of Con. 10 μM) HepG2” value in data set [4] is 91 % of Con.
In the case of `CP(C)(=O)c1ccccc1Nc1nc(NCc2ccccc2)ncc1Cl` [compound 14, (2-((2-(Benzylamino)-5-chloropyrimidin-4-yl)amino)phenyl) dimethylphosphine oxide], the “Cell viability (% of Con. 10 μM) HS746T” value in data set [1] is reported as 110 % of Con. Also, the IC50 in data set [2] and in data set [3] was above 1 µM throughout. In addition, the “Cell viability (% of Con. 10 μM) HepG2” value in data set [4] was 108 % of Con.
As to `CC1(C)c2cc(Nc3ncc(Cl)c(Nc4ccccc4P(C)(C)=O)n3)ccc2CCN1C(=O)C(F)(F)F` [compound 42, 1-(7-((5-Chloro-4-((2-(dimethylphosphoryl)phenyl)amino)pyrimidin-2-yl)amino)-1,1-dimethyl-3,4-dihydroisoquinolin-2(1H)-yl)-2,2,2-trifluoroethan-1-one], the “Cell viability (% of Con. 10 μM) HS746T” value in data set [1] is given as 30 % of Con. Also, the IC50 in data set [2] and in data set [3] was 0.001 to 0.01 µM each time. Also, the “Cell viability (% of Con. 10 μM) HepG2” value in data set [4] was 48 % of Con.
Regarding `Cc1cccc2sc(Nc3ncc(Cl)c(Nc4ccccc4P(C)(C)=O)n3)nc12` [compound 27, (2-((5-Chloro-2-((4-methylbenzo[d]thiazol-2-yl)amino)pyrimidin-4-yl)amino)phenyl)dimethylphosphine oxide], the “Cell viability (% of Con. 10 μM) HS746T” value in data set [1] is listed as 74 % of Con. The results for the IC50 in data set [2] and in data set [3] were above 1 µM and 0.1 to 1 µM, respectively. In addition, in data set [4], the “Cell viability (% of Con. 10 μM) HepG2” value is 81 % of Con.
In the same order, the values of `Cn1cc(-c2n[nH]c3ccc(Nc4ncc(Cl)c(Nc5ccccc5P(C)(C)=O)n4)cc23)cn1` [compound 94, (2-((5-Chloro-2-((3-(1-methyl-1H-pyrazol-4-yl)-1H-indazol-5-yl)amino)pyrimidin-4-yl)amino)phenyl)dimethylphosphine oxide] are 15 % of Con, 0.001 to 0.01 µM, 0.001 to 0.01 µM and 30 % of Con.
On the same counts, the results for `CC(C)n1cc(-c2n[nH]c3ccc(Nc4ncc(Cl)c(Nc5ccccc5P(C)(C)=O)n4)cc23)cn1` [compound 93, (2-((5-Chloro-2-((3-(1-isopropyl-1H-pyrazol-4-yl)-1H-indazol-5-yl)amino)pyrimidin-4-yl)amino)phenyl)dimethylphosphine oxide] are 18 % of Con, 0.001 to 0.01 µM, 0.001 to 0.01 µM and 42 % of Con.
On the same counts, the results for `CC1c2cc(Nc3ncc(Cl)c(Nc4ccccc4P(C)(C)=O)n3)ccc2CCN1C(=O)C(F)(F)F` (centres unmarked) [compound 54, 1-(7-((5-Chloro-4-((2-(dimethylphosphoryl)phenyl)amino)pyrimidin-2-yl)amino)-1-methyl-3,4-dihydroisoquinolin-2(1H)-yl)-2,2,2-trifluoroethan-1-one] are 4 % of Con, 0.001 to 0.01 µM, 0.001 to 0.01 µM and 17 % of Con.
With `CP(C)(=O)c1ccccc1Nc1nc(Nc2cccc3cc[nH]c23)ncc1Cl` [compound 71, (2-((2-((1H-Indol-7-yl)amino)-5-chloropyrimidin-4-yl)amino)phenyl)dimethylphosphine oxide], in data set [1], the “Cell viability (% of Con. 10 μM) HS746T” value is given as 83 % of Con. In addition, the IC50 in data set [2] fell in the range of 0.001 to 0.01 µM; in data set [3], 0.01 to 0.1 µM. Further, the “Cell viability (% of Con. 10 μM) HepG2” value in data set [4] was 63 % of Con.
In the case of `CC(C)(C)OC(=O)N1CCN(c2ccc(-c3n[nH]c4ccc(Nc5ncc(Cl)c(Nc6ccccc6P(C)(C)=O)n5)cc34)cc2)CC1` [compound 117, Tert-butyl 4-(4-(5-((5-chloro-4-((2-(dimethylphosphoryl)phenyl)amino)pyrimidin-2-yl)amino)-1H-indazol-3-yl)phenyl)piperazine-1-carboxylate], the “Cell viability (% of Con. 10 μM) HS746T” value in data set [1] is listed as 20 % of Con. The results for the IC50 in data set [2] and in data set [3] were 0.01 to 0.1 µM and 0.001 to 0.01 µM, respectively. Further, the “Cell viability (% of Con. 10 μM) HepG2” value in data set [4] was 68 % of Con.
In the same order, the values of `CP(C)(=O)c1ccccc1Nc1nc(Nc2ccc3[nH]ccc3c2)ncc1Cl` [compound 65, (2-((2-((1H-Indol-5-yl)amino)-5-chloropyrimidin-4-yl)amino)phenyl)dimethylphosphine oxide] are 23 % of Con, 0.001 to 0.01 µM, 0.001 to 0.01 µM and 20 % of Con.
Regarding `CP(C)(=O)c1ccccc1Nc1nc(Nc2ccc3[nH]c(C(F)(F)F)nc3c2)ncc1Cl` [compound 75, (2-((5-Chloro-2-((2-(trifluoromethyl)-1H-benzo[d]imidazol-5-yl)amino)pyrimidin-4-yl)amino)phenyl)dimethylphosphine oxide], the “Cell viability (% of Con. 10 μM) HS746T” value in data set [1] is 21 % of Con. Further, the IC50 in data set [2] lay within 0.001 to 0.01 µM; in data set [3], 0.01 to 0.1 µM. Also, the “Cell viability (% of Con. 10 μM) HepG2” value in data set [4] is 28 % of Con.
Take `CP(C)(=O)c1ccccc1Nc1nc(Nc2ccc3c(c2)CNC3)ncc1Cl` [compound 73, (2-((5-Chloro-2-(isoindolin-5-ylamino)pyrimidin-4-yl)amino)phenyl)dimethylphosphine oxide]: in data set [1], the “Cell viability (% of Con. 10 μM) HS746T” value is on record as 0.5 % of Con. Moreover, the IC50 in data set [2] and in data set [3] was 0.001 to 0.01 µM each time. In data set [4], the “Cell viability (% of Con. 10 μM) HepG2” value was 19 % of Con.
In the case of `CP(C)(=O)c1ccccc1Nc1nc(Nc2ccc3[nH]nc(-c4ccncc4)c3c2)ncc1Cl` [compound 104, (2-((5-Chloro-2-((3-(pyridin-4-yl)-1H-indazol-5-yl)amino)pyrimidin-4-yl)amino)phenyl)dimethylphosphine oxide], the “Cell viability (% of Con. 10 μM) HS746T” value in data set [1] is reported as 11 % of Con. For the same compound, the IC50 in data set [2] and in data set [3] was 0.001 to 0.01 µM each time. Also, the “Cell viability (% of Con. 10 μM) HepG2” value in data set [4] was 30 % of Con.

The values are drawn from patent US20240270698A2, “NOVEL PYRIMIDINE DERIVATIVE AND USE THEREOF” (KOREA RESEARCH INSTITUTE OF CHEMICAL TECHNOLOGY, priority 2019, published 2024).
